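Step 1: Grow cells in 96-well plates. Step 2: Expose to compound for 48 hours at 5 concentrations. Step 3: Interpolate endpoints linearly; if unreached, use highest concentration. The concentration for 50% growth inhibition is given as GI50.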 Calls of active or inactive are those of the source. No stated cut-off is given here; in the data, active = GI50 up to about 1.1 µM and inactive = higher.
Columns and labels:
Assay in all cases: DTP human tumour cell line panel, 48 h
A498 = system: A498
CCRF-CEM = system: CCRF-CEM
HT-29 = system: HT-29
K562 = system: K562
LOX IMVI = system: LOX IMVI
MOLT-4 = system: MOLT-4
Malme-3M = system: Malme-3M
NCI-H522 = system: NCI-H522
OVCAR-4 = system: OVCAR-4
OVCAR-5 = system: OVCAR-5
SF-295 = system: SF-295
SF-539 = system: SF-539
SK-MEL-28 = system: SK-MEL-28
SK-OV-3 = system: SK-OV-3
SNB-75 = system: SNB-75
U-251 = system: U-251
HCT-116 = system: HCT-116

Structure (SMILES)	GI50 (A498)	GI50 (CCRF-CEM)	GI50 (HT-29)	GI50 (K562)	GI50 (LOX IMVI)	GI50 (MOLT-4)	GI50 (Malme-3M)	GI50 (NCI-H522)	GI50 (OVCAR-4)	GI50 (OVCAR-5)	GI50 (SF-295)	GI50 (SF-539)	GI50 (SK-MEL-28)	GI50 (SK-OV-3)	GI50 (SNB-75)	GI50 (U-251)	GI50 (HCT-116)
Cc1ccccc1N(CC(=O)O)S(=O)(=O)c1ccccc1	> 100 µM (inactive)	> 100 µM (inactive)	> 100 µM (inactive)	> 100 µM (inactive)	> 100 µM (inactive)	> 100 µM (inactive)	> 100 µM (inactive)	> 100 µM (inactive)	> 100 µM (inactive)	> 100 µM (inactive)	> 100 µM (inactive)	> 100 µM (inactive)	> 100 µM (inactive)	> 100 µM (inactive)	> 100 µM (inactive)	> 100 µM (inactive)	–
COc1cc(Cl)c2c3c(c(C(C)=O)oc13)CCC2	> 100 µM (inactive)	> 100 µM (inactive)	> 100 µM (inactive)	> 100 µM (inactive)	> 100 µM (inactive)	–	–	–	> 100 µM (inactive)	–	> 100 µM (inactive)	> 100 µM (inactive)	> 100 µM (inactive)	> 100 µM (inactive)	> 100 µM (inactive)	> 100 µM (inactive)	> 100 µM (inactive)
COc1cc(/C=C\c2ccc(Br)cc2)cc(OC)c1OC	0.01 µM (active)	0.000352 µM (active)	0.01 µM (active)	0.000386 µM (active)	0.000811 µM (active)	0.000662 µM (active)	0.0024 µM (active)	0.000357 µM (active)	0.0622 µM (active)	35.4 µM (inactive)	0.000296 µM (active)	0.000463 µM (active)	0.1 µM (active)	58.2 µM (inactive)	0.000422 µM (active)	0.000463 µM (active)	0.000515 µM (active)
COc1ccc(C2SCC(=O)N2NC(=O)c2ccncc2)cc1F (stereo not drawn)	> 100 µM (inactive)	–	> 100 µM (inactive)	–	> 100 µM (inactive)	–	> 100 µM (inactive)	> 100 µM (inactive)	> 100 µM (inactive)	> 100 µM (inactive)	> 100 µM (inactive)	–	> 100 µM (inactive)	> 100 µM (inactive)	> 100 µM (inactive)	> 100 µM (inactive)	> 100 µM (inactive)
COC(=O)Cc1nn2c(nc1=O)sc1ccc3ccccc3c12	> 100 µM (inactive)	> 100 µM (inactive)	> 100 µM (inactive)	> 100 µM (inactive)	67.3 µM (inactive)	> 100 µM (inactive)	> 100 µM (inactive)	37.2 µM (inactive)	> 100 µM (inactive)	> 100 µM (inactive)	–	> 100 µM (inactive)	> 100 µM (inactive)	> 100 µM (inactive)	37.3 µM (inactive)	25.1 µM (inactive)	> 100 µM (inactive)
CC1=C(O)C(=O)C2C(=O)C1C(C)C2c1ccc(C)cc1 (stereo not drawn)	> 100 µM (inactive)	> 100 µM (inactive)	> 100 µM (inactive)	> 100 µM (inactive)	> 100 µM (inactive)	> 100 µM (inactive)	> 100 µM (inactive)	> 100 µM (inactive)	> 100 µM (inactive)	> 100 µM (inactive)	> 100 µM (inactive)	> 100 µM (inactive)	> 100 µM (inactive)	> 100 µM (inactive)	98.9 µM (inactive)	> 100 µM (inactive)	–
CC(=O)NC(CCCCN(Cc1ccccc1)C(=O)N(C)N=O)C(=O)NCc1ccccc1 (stereo not drawn)	> 100 µM (inactive)	59.6 µM (inactive)	83.9 µM (inactive)	61 µM (inactive)	> 100 µM (inactive)	39.6 µM (inactive)	82 µM (inactive)	16.8 µM (inactive)	62.2 µM (inactive)	> 100 µM (inactive)	> 100 µM (inactive)	> 100 µM (inactive)	> 100 µM (inactive)	> 100 µM (inactive)	31.9 µM (inactive)	> 100 µM (inactive)	71.3 µM (inactive)
C=C=C(C(=O)OC)[S+]([O-])c1ccccc1[N+](=O)[O-] (stereo not drawn)	> 100 µM (inactive)	24.7 µM (inactive)	> 100 µM (inactive)	59.2 µM (inactive)	–	> 100 µM (inactive)	> 100 µM (inactive)	22.3 µM (inactive)	> 100 µM (inactive)	> 100 µM (inactive)	> 100 µM (inactive)	> 100 µM (inactive)	–	> 100 µM (inactive)	> 100 µM (inactive)	> 100 µM (inactive)	89.9 µM (inactive)
Cc1ccc([Se][Se]c2ccc(C)cc2)cc1	> 100 µM (inactive)	3.48 µM (inactive)	20.5 µM (inactive)	5.04 µM (inactive)	5.42 µM (inactive)	15.1 µM (inactive)	32.4 µM (inactive)	3.32 µM (inactive)	12.5 µM (inactive)	–	23.3 µM (inactive)	22.3 µM (inactive)	19.1 µM (inactive)	> 100 µM (inactive)	7.91 µM (inactive)	3.18 µM (inactive)	14.4 µM (inactive)
N=C(N)N/N=C(/CC1OC(=O)c2ccccc21)c1ccc2ccccc2c1 (stereo not drawn)	16 µM (inactive)	15.1 µM (inactive)	21.9 µM (inactive)	24.3 µM (inactive)	23.1 µM (inactive)	23.6 µM (inactive)	14.5 µM (inactive)	14.2 µM (inactive)	17.2 µM (inactive)	30.1 µM (inactive)	23.8 µM (inactive)	13.2 µM (inactive)	18.6 µM (inactive)	21.9 µM (inactive)	20 µM (inactive)	14.6 µM (inactive)	–
COc1ccc(/C=c2\sc3nnc(CCC(=O)Nc4cccc(C(F)(F)F)c4)n3c2=O)cc1	> 100 µM (inactive)	37.2 µM (inactive)	> 100 µM (inactive)	> 100 µM (inactive)	> 100 µM (inactive)	4.56 µM (inactive)	> 100 µM (inactive)	–	> 100 µM (inactive)	> 100 µM (inactive)	> 100 µM (inactive)	> 100 µM (inactive)	> 74.3 µM (inactive)	> 100 µM (inactive)	> 75.7 µM (inactive)	> 94.2 µM (inactive)	> 100 µM (inactive)
NC(=O)N/C=C1\C(=O)Oc2ccccc2C1=O	–	> 100 µM (inactive)	> 100 µM (inactive)	> 100 µM (inactive)	> 100 µM (inactive)	> 100 µM (inactive)	–	–	> 100 µM (inactive)	35.3 µM (inactive)	51.8 µM (inactive)	85.9 µM (inactive)	73.5 µM (inactive)	–	–	–	> 100 µM (inactive)
C[C@]12CC[C@H](OC(=O)Nc3ccccc3)CC1=CC[C@@H]1C2CC[C@]2(C)/C(=N/OC(=O)Nc3ccccc3)CCC12 (stereo partly drawn)	> 100 µM (inactive)	2.83 µM (inactive)	2.88 µM (inactive)	2.21 µM (inactive)	5.32 µM (inactive)	5.05 µM (inactive)	1.72 µM (inactive)	–	5.66 µM (inactive)	70.5 µM (inactive)	10 µM (inactive)	> 100 µM (inactive)	–	> 100 µM (inactive)	5.5 µM (inactive)	43.7 µM (inactive)	4.18 µM (inactive)
COc1ccc(C2c3cc4c(cc3OC(O)(CO)C2C(=O)O)OCO4)cc1.COc1ccc(C2c3cc4c(cc3OC3(O)COC(=O)C23)OCO4)cc1 (stereo not drawn)	89.3 µM (inactive)	18.7 µM (inactive)	24.7 µM (inactive)	19.1 µM (inactive)	16.5 µM (inactive)	19.1 µM (inactive)	26.9 µM (inactive)	–	> 100 µM (inactive)	39.4 µM (inactive)	22.8 µM (inactive)	20.7 µM (inactive)	25.2 µM (inactive)	40.1 µM (inactive)	30.3 µM (inactive)	19.8 µM (inactive)	18.2 µM (inactive)
O=c1[nH]c2cc(-c3ccccc3)nc-2nn1-c1c(Cl)cc(Cl)cc1Cl	33 µM (inactive)	28.6 µM (inactive)	34.4 µM (inactive)	41.1 µM (inactive)	24.3 µM (inactive)	22.5 µM (inactive)	24.4 µM (inactive)	28.8 µM (inactive)	–	39.4 µM (inactive)	32.1 µM (inactive)	19.4 µM (inactive)	> 100 µM (inactive)	25.8 µM (inactive)	–	19.1 µM (inactive)	22.4 µM (inactive)
C=CCNC(=O)N(CCCC(NC(C)=O)C(=O)NCc1ccccc1)Cc1ccccc1 (stereo not drawn)	> 100 µM (inactive)	> 100 µM (inactive)	> 100 µM (inactive)	> 100 µM (inactive)	> 100 µM (inactive)	> 100 µM (inactive)	> 100 µM (inactive)	> 100 µM (inactive)	> 100 µM (inactive)	> 100 µM (inactive)	> 100 µM (inactive)	> 100 µM (inactive)	> 100 µM (inactive)	> 100 µM (inactive)	> 100 µM (inactive)	> 100 µM (inactive)	–
COc1ccc2c(c1)[n+]([O-])c(-c1nc3ccccc3s1)c(N)[n+]2[O-]	45.8 µM (inactive)	–	> 100 µM (inactive)	64.4 µM (inactive)	–	43.8 µM (inactive)	> 100 µM (inactive)	51.3 µM (inactive)	> 100 µM (inactive)	> 100 µM (inactive)	> 100 µM (inactive)	> 100 µM (inactive)	55.6 µM (inactive)	> 100 µM (inactive)	39.1 µM (inactive)	78 µM (inactive)	54.3 µM (inactive)
COc1cc(-c2cc(=O)c3c(O)c(OC)c(OC)c(OC)c3o2)ccc1O	2.61 µM (inactive)	22.4 µM (inactive)	–	17.8 µM (inactive)	16.8 µM (inactive)	23.1 µM (inactive)	28.7 µM (inactive)	17.1 µM (inactive)	–	> 100 µM (inactive)	23.4 µM (inactive)	11.8 µM (inactive)	23.5 µM (inactive)	11.2 µM (inactive)	–	8.97 µM (inactive)	24.8 µM (inactive)
